Experimental data as given in publication PMC11087268, “A folate inhibitor exploits metabolic differences in Pseudomonas aeruginosa for narrow-spectrum targeting” (Nature Microbiology, 2024).

Key:
E. coli DHFR (FolA) = target: T1, E. coli DHFR (FolA) (Escherichia coli, UniProt P0ABQ4); assay: In vitro DHFR activity, purified E. coli FolA; assay type: biochemical; settings: for fractional initial velocity: E. coli FolA
T1 construct: purchased Genscript
Procedure: As described previously, purified E. coli dihydrofolate reductase (FolA) was purified by Genscript. Enzyme activity was measured on a QuantaMaster 40 spectrophotometer (Photon Technology) using the DHFR reductase assay kit with slight modifications. E. coli FolA was diluted 1:1,000 into 1× assay buffer. Of this mixture, 100 μl with or without compound was added to a BRAND UV cuvette (Sigma-Aldrich BR759200) and sample transmitted light intensity at 340 nm was measured for 100 s at 1 kHz sampling. Readings were averaged for every 1 Hz and the activity of each sample was calculated from the slope (β) of a linear regression of the log-transformed intensity measurements on MATLAB R2022B. To account for enzyme stability, measurements were normalized to a standard condition (60 μM NADPH and 100 μM DHF) measured immediately before the sample of interest. The relative activity was calculated as (βsample − βnoEnzyme)/(βstandard − βnoEnzyme).

sheep red blood cells = assay: Haemolysis; assay type: cell-based; settings: biologically relevant concentrations
Procedure: (§1) Samples were treated at 37 °C with shaking for 1 h and then centrifuged. Supernatants were collected and absorbances were measured at 405 nm in a Tecan InfiniteM200 Pro microplate reader.

Haemolysis = assay type: cell-based, sheep; settings: sheep, defibrinated sheep red blood cells, 1 h, vs Triton X-100 100% lysis
Procedure: as §1

[1] = test system: P. aeruginosa PA14 nfxB mutants; assay: MIC against fluorofolin-resistant PA14 nfxB mutants in liquid culture; assay type: cell-based; settings: Pseudomonas aeruginosa
Procedure: Overnight cultures were diluted 1:150 in LB broth and added to a 96-well plate. Antibiotics were serially diluted 1:2 and added to columns of the 96-well plate and grown at 37 °C with continuous shaking. Cell growth was measured using optical density at 600 nm (OD600). MIC assays were performed in either BioTek Synergy HT or Tecan InfiniteM200 Pro microplate readers.
Resistant mutants were maintained as a frozen stock.

E. coli MG1655 = assay: Growth of E. coli MG1655 in TMI-supplemented media with fluorofolin; assay type: cell-based, Escherichia coli; settings: for OD600 of E. coli MG1655: Fluorofolin + TMI

T1 sequence (P0ABQ4 whole entry): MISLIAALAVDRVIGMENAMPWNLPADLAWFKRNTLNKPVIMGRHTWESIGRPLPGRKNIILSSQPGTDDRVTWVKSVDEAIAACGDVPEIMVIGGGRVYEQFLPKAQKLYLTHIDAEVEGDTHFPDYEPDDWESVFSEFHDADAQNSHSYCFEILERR

**Q.** With `Nc1nc(N)c2c(ccc3c2ccn3Cc2ccnc(F)c2)n1` [fluorofolin] as the compound, how does the IC50 (E. coli DHFR (FolA)) read?
**A.** 2.5 ± 1.1 nM

**Q.** What about the fractional initial velocity (E. coli DHFR (FolA); Fluorofolin 9.91e-5 uM) of the same compound?
**A.** 1.007

**Q.** And the fractional initial velocity (E. coli DHFR (FolA); Fluorofolin 0.000507393 uM)?
**A.** 1.009

**Q.** What about the fractional initial velocity (E. coli DHFR (FolA); Fluorofolin 0.000792664 uM) of the same compound?
**A.** 0.7937

**Q.** And the fractional initial velocity (E. coli DHFR (FolA); Fluorofolin 0.00101479 uM)?
**A.** 0.7819

**Q.** And the fractional initial velocity (E. coli DHFR (FolA); Fluorofolin 0.00152192 uM)?
**A.** 0.9341

**Q.** What about the fractional initial velocity (E. coli DHFR (FolA); Fluorofolin 0.00158533 uM) of the same compound?
**A.** 0.5604

**Q.** What about the fractional initial velocity (E. coli DHFR (FolA); Fluorofolin 0.00202957 uM) of the same compound?
**A.** 0.702

**Q.** What about the fractional initial velocity (E. coli DHFR (FolA); Fluorofolin 0.00405914 uM) of the same compound?
**A.** 0.5491

**Q.** What about the fractional initial velocity (E. coli DHFR (FolA); Fluorofolin 0.00608766 uM) of the same compound?
**A.** 0.1317

**Q.** And the fractional initial velocity (E. coli DHFR (FolA); Fluorofolin 0.00634131 uM)?
**A.** 0.5169

**Q.** And the fractional initial velocity (E. coli DHFR (FolA); Fluorofolin 0.00811828 uM)?
**A.** 0.197

**Q.** And the fractional initial velocity (E. coli DHFR (FolA); Fluorofolin 0.0121753 uM)?
**A.** 0.07555

**Q.** And the fractional initial velocity (E. coli DHFR (FolA); Fluorofolin 0.0126826 uM)?
**A.** 0.0002002

**Q.** And the fractional initial velocity (E. coli DHFR (FolA); Fluorofolin 0.0162366 uM)?
**A.** 0.3634

**Q.** And the fractional initial velocity (E. coli DHFR (FolA); Fluorofolin 0.0253653 uM)?
**A.** 0.0004461

**Q.** And the fractional initial velocity (E. coli DHFR (FolA); Fluorofolin 0.0324731 uM)?
**A.** -0.0327

**Q.** And the “permeabilization of red blood cell membranes” value (sheep red blood cells)?
**A.** did not cause significant permeabilization

**Q.** And the hemolysis at 1 h, 0.78125 ug/mL (Haemolysis; 0.78125 ug/mL)?
**A.** 0.966%

**Q.** And the hemolysis at 1 h, 1.5625 ug/mL (Haemolysis; 1.5625 ug/mL)?
**A.** 0.655%

**Q.** What about the hemolysis at 1 h, 3.125 ug/mL (Haemolysis; 3.125 ug/mL) of the same compound?
**A.** -0.334%

**Q.** And the hemolysis at 1 h, 6.25 ug/mL (Haemolysis; 6.25 ug/mL)?
**A.** 0.353%

**Q.** What about the hemolysis at 1 h, 12.5 ug/mL (Haemolysis; 12.5 ug/mL) of the same compound?
**A.** -0.799%

**Q.** What about the hemolysis at 1 h, 25 ug/mL (Haemolysis; 25 ug/mL) of the same compound?
**A.** -0.239%

**Q.** And the hemolysis at 1 h, 50 ug/mL (Haemolysis; 50 ug/mL)?
**A.** 13.7%

**Q.** And the MIC [1]?
**A.** > 100 µg/mL

**Q.** And the “rescue of growth inhibition by TMI supplementation” value (E. coli MG1655; E. coli MG1655, 0.3 mM TMI, fluorofolin 2× MIC)?
**A.** could also be rescued with TMI supplementation

**Q.** And the “OD600 of E. coli MG1655” value (E. coli MG1655; Time 10 min)?
**A.** 0.007

**Q.** What about the “OD600 of E. coli MG1655” value (E. coli MG1655; Time 70 min) of the same compound?
**A.** 0.0105

**Q.** What about the “OD600 of E. coli MG1655” value (E. coli MG1655; Time 80 min) of the same compound?
**A.** 0.012

**Q.** What about the “OD600 of E. coli MG1655” value (E. coli MG1655; Time 90 min) of the same compound?
**A.** 0.0135

**Q.** What about the “OD600 of E. coli MG1655” value (E. coli MG1655; Time 100 min) of the same compound?
**A.** 0.015

**Q.** What about the “OD600 of E. coli MG1655” value (E. coli MG1655; Time 110 min) of the same compound?
**A.** 0.0175

**Q.** And the “OD600 of E. coli MG1655” value (E. coli MG1655; Time 120 min)?
**A.** 0.0195

**Q.** What about the “OD600 of E. coli MG1655” value (E. coli MG1655; Time 130 min) of the same compound?
**A.** 0.0225

**Q.** What about the “OD600 of E. coli MG1655” value (E. coli MG1655; Time 140 min) of the same compound?
**A.** 0.025

**Q.** And the “OD600 of E. coli MG1655” value (E. coli MG1655; Time 150 min)?
**A.** 0.028

**Q.** And the “OD600 of E. coli MG1655” value (E. coli MG1655; Time 160 min)?
**A.** 0.0305

**Q.** What about the “OD600 of E. coli MG1655” value (E. coli MG1655; Time 170 min) of the same compound?
**A.** 0.0345

**Q.** And the “OD600 of E. coli MG1655” value (E. coli MG1655; Time 180 min)?
**A.** 0.038

**Q.** And the “OD600 of E. coli MG1655” value (E. coli MG1655; Time 190 min)?
**A.** 0.042

**Q.** And the “OD600 of E. coli MG1655” value (E. coli MG1655; Time 200 min)?
**A.** 0.0465

**Q.** What about the “OD600 of E. coli MG1655” value (E. coli MG1655; Time 210 min) of the same compound?
**A.** 0.052

**Q.** What about the “OD600 of E. coli MG1655” value (E. coli MG1655; Time 220 min) of the same compound?
**A.** 0.0575

**Q.** And the “OD600 of E. coli MG1655” value (E. coli MG1655; Time 230 min)?
**A.** 0.0625

**Q.** And the “OD600 of E. coli MG1655” value (E. coli MG1655; Time 240 min)?
**A.** 0.068

**Q.** And the “OD600 of E. coli MG1655” value (E. coli MG1655; Time 250 min)?
**A.** 0.0745

**Q.** And the “OD600 of E. coli MG1655” value (E. coli MG1655; Time 260 min)?
**A.** 0.0815

**Q.** What about the “OD600 of E. coli MG1655” value (E. coli MG1655; Time 270 min) of the same compound?
**A.** 0.0875

**Q.** What about the “OD600 of E. coli MG1655” value (E. coli MG1655; Time 280 min) of the same compound?
**A.** 0.094

**Q.** And the “OD600 of E. coli MG1655” value (E. coli MG1655; Time 290 min)?
**A.** 0.1

**Q.** And the “OD600 of E. coli MG1655” value (E. coli MG1655; Time 300 min)?
**A.** 0.105

**Q.** What about the “OD600 of E. coli MG1655” value (E. coli MG1655; Time 310 min) of the same compound?
**A.** 0.1105

**Q.** And the “OD600 of E. coli MG1655” value (E. coli MG1655; Time 320 min)?
**A.** 0.1155

**Q.** And the “OD600 of E. coli MG1655” value (E. coli MG1655; Time 330 min)?
**A.** 0.1215

**Q.** And the “OD600 of E. coli MG1655” value (E. coli MG1655; Time 340 min)?
**A.** 0.1265

**Q.** And the “OD600 of E. coli MG1655” value (E. coli MG1655; Time 350 min)?
**A.** 0.132

**Q.** And the “OD600 of E. coli MG1655” value (E. coli MG1655; Time 360 min)?
**A.** 0.136

**Q.** And the “OD600 of E. coli MG1655” value (E. coli MG1655; Time 370 min)?
**A.** 0.14

**Q.** What about the “OD600 of E. coli MG1655” value (E. coli MG1655; Time 380 min) of the same compound?
**A.** 0.1435

**Q.** And the “OD600 of E. coli MG1655” value (E. coli MG1655; Time 390 min)?
**A.** 0.147

**Q.** And the “OD600 of E. coli MG1655” value (E. coli MG1655; Time 400 min)?
**A.** 0.151

**Q.** What about the “OD600 of E. coli MG1655” value (E. coli MG1655; Time 410 min) of the same compound?
**A.** 0.155
